The text below walks through data of patent US20080058269A1, “Insulin Releasing Peptides” (priority 2003, published 2008).

Read-outs that look alike come from different tables or passages of the source.

Assay [1] has as its system BRIN-BD11 cells. The format is cell-based, rat. The settings on record: for Insulin secretion (ng/10^6 cells/20 min), Control: addition alone without peptide: verapamil 50 μM or KCl 30 mM; for Insulin-releasing action in the presence of verapamil (in words): 50 μM verapamil, calcium channel blocker; for Insulin-releasing action in cells depolarised with KCl (in words): 30 mM KCl; for Insulin secretion (ng/10^6 cells/20 min): 8 observations. The method, then:
(§1) Culture of insulin-secreting cells: Clonal rat insulin-secreting BRIN-BD11 cells were cultured in RPMI-1640 tissue culture medium containing 10% (v/v) fetal calf serum, 1% (v/v) antibiotics (100 U/ml penicillin, 0.1 mg/ml streptomycin) and 11.1 mM glucose. The production and characterisation of BRIN-BD11 cells are described elsewhere. Cells were maintained in sterile tissue culture flasks (Corning, Glass Works, UK) at 37° C. in an atmosphere of 5% CO2 and 95% air using LEEC incubator (Laboratory Technical Engineering, Nottingham, UK). In three experimental series using purified peptides from Agalychnis calcarifer, Bombina variegata and Rana saharica cells were cultured overnight with 25 μM forskolin, 10 nM PMA or 0.1 μg/ml pertussis toxin prior to acute tests.
Acute insulin release studies: Insulin release from BRIN-BD11 cells was determined using cell monolayers [McClenaghan N H, Barnett C R, Ah-Sing E, Abdel-Wahab Y H, O'Harte F P, Yoon T W, Swanston-Flatt S K and Flatt P R 1996 Characterization of a novel glucose-responsive insulin-secreting cell line, BRIN-BD11, produced by electrofusion. Diabetes 45 1132-1140]. The cells were harvested with the aid of trypsin/EDTA (Gibco), seeded into 24-multiwell plates (Nunc, Rosklide, Denmark) at a density of […] per well, and allowed to attach overnight. Prior to acute test, cells were preincubated for 40 min at 37° C. in a 1.0 ml Krebs Ringer bicarbonate buffer (115 mM NaCl, 4.7 mM KCl, 1.28 MM CaCl2, 1.2 MM KH2PO4, 1.2 mM MgSO4, 10 mM NaHCO3, 5 g/l bovine serum albumin, pH 7.4) supplemented with 1.1 mM glucose. Test incubations were performed for 20 min at 37° C. using the same buffer supplemented with 5.6 mM glucose in the absence (control) and presence of various venom fractions, peaks (equivalent to approx. 25 μl dried HPLC fraction) or test agents as indicated in the Figures. Cell viability after 20 min test incubations was assessed by modified neutral red assay [Hunt S M, Chrzanowska C, Barnnett C R, Brand H N and Fawell J K 1987 A comparison of in vitro cytotoxicity assays and their application to water samples. Alternatives to Laboratory Animals 15 20-29]. After incubation, aliquots of buffer were removed and stored at −20° C. for insulin radiomnimmunoassay [Flatt P R. and Bailey C J 1981 Abnormal plasma glucose and insulin responses in heterozygous lean (ob/+) mice. Diabetologia 20 573-577].

Assay [2] concerns BRIN-BD11 cells. As to the kind of experiment: Acute insulin release from BRIN-BD11 cells cultured overnight with forskolin, PMA or pertussis toxin. It counts as cell-based, rat. The note with it: acute test at 5.6 mM glucose; for Stimulatory effect on insulin secretion in cells cultured overnight with PMA: 10 nM PMA overnight (protein kinase C pathway); for Stimulatory effect on insulin secretion in cells cultured overnight with pertussis toxin: 0.1 μg/ml pertussis toxin overnight (G-protein pathway); for Stimulatory effect on insulin secretion in cells cultured overnight with forskolin: 25 μM forskolin overnight (desensitised cyclic AMP-protein kinase A pathway). How it is done: FIG. 8 illustrates the dependence of the stimulatory effects of 1653.2 Da purified peptide (peak 1.10) from Agalychnis calcarifer on intracellular pathways mediated by protein kinase A (forskolin), protein kinase C (PMA) or pertussis toxin-sensitive G-proteins. Legend: Acute effects of the 13 amino acid 1653.2 Da purified peptide (peak 1.10) from Agalychnis calcarifer on forskolin and PMA on insulin secretion from BRIN-BD11 cells cultured overnight in the absence (control) and presence of 25 μM forskolin, 10 nM PMA or 0.1 μg/ml pertussis toxin. Acute incubations were performed at 5.6 mM glucose. Values are the mean ±SEM for 8 separate observations. ***P<0.001 compared with 5.6 mM glucose alone under same culture conditions. ^ΔΔΔp<0.001 compared with respective test reagent following control culture.
FIG. 9 illustrates the dependence of the stimulatory effects of 1641.7 Da, 1662.6 Da, 1619.8 Da and 1650.5 Da purified peptides (peaks 21, 22, 23 and 24) from Bombina variegata on intracellular pathways mediated by protein kinase A (forskolin), protein kinase C (PMA) or pertussis toxin-sensitive G-proteins. Legend: Acute effects of 1641.7, 1662.6, 1619.8 and 1650.5 Da purified peptides (peaks 21, 22, 23 and 24) from Bombina variegata on forskolin and PMA on insulin secretion from BRIN-BD11 cells cultured overnight in the absence (control) and presence of 25 μM forskolin, 10 nM PMA or 0.1 μg/ml pertussis toxin. Acute incubations were performed at 5.6 mM glucose. Values are the mean ±SEM for 8 separate observations. **P<0.001 compared with 5.6 mM glucose alone under same culture conditions. ^ΔP<0.001 compared with respective test reagent following control culture.
FIG. 10 illustrates the dependence of the stimulatory effects of 4920.4 Da and 4801.2 Da purified peptides (peaks 5.1 and 5.4) from Rana saharica on intracellular pathways mediated by protein kinase A (forskolin), protein kinase C (PMA) or pertussis toxin-sensitive G-proteins. Legend: Acute effects of 4920.4 and 4801.2 Da purified peptides (peaks 5.1 and 5.4) from Rana saharica on forskolin and PMA on insulin secretion from BRIN-BD11 cells cultured overnight in the absence (control) and presence of 25 μM forskolin, 10 nM PMA or […] pertussis toxin. Acute incubations were performed at 5.6 mM glucose. Values are the mean ±SEM for 8 separate observations. ***P<0.001 compared with 5.6 mM glucose alone under same culture conditions. ^ΔΔP<0.001 compared with respective test reagent following control culture.
as §1
Acute insulin release studies: Insulin release from BRIN-BD11 cells was determined using cell monolayers [McClenaghan N H, Barnett C R, Ah-Sing E, Abdel-Wahab Y H, O'Harte F P, Yoon T W, Swanston-Flatt S K and Flatt P R 1996 Characterization of a novel glucose-responsive insulin-secreting cell line, BRIN-BD11, produced by electrofusion. Diabetes 45 1132-1140]. The cells were harvested with the aid of trypsin/EDTA (Gibco), seeded into 24-multiwell plates (Nunc, Rosklide, Denmark) at a density of […] per well, and allowed to attach overnight. […]

Where [3] appears, read: peptides from Phyllomedusa trinitatis, 5.6 mM glucose, no-peptide control 1.47 ± 0.04.
Setting [4] is: peptides from Rana saharica, 5.6 mM glucose, mean ± SEM, 3 observations, no-peptide control 1.87 ± 0.06.
Setting [5] is: peptides from Agalychnis litodryas, 5.6 mM glucose, mean ± SEM, 3 observations, no-peptide control 1.95 ± 0.16.
The mark [6] stands for this setting: Table 10, no addition, 5.6 mM glucose, control 1.69 ± 0.17.
Where [7] appears, read: Table 10, peptide plus KCl (30 mM), 5.6 mM glucose.
Setting [8] is: Table 10, peptide plus verapamil (50 μM), 5.6 mM glucose.

With `[Cl-].[K+]` [KCl, reference compound], the “Insulin secretion (ng/10^6 cells/20 min), Control” value with BRIN-BD11 cells [1] (Table 8, 5.6 mM glucose) is reported as 5.32 ± 0.38 ΔΔΔ ng/10^6 cells/20 min; with BRIN-BD11 cells [1] (Table 9, 5.6 mM glucose), 5.33 ± 0.38ΔΔΔ ng/10^6 cells/20 min; in the assay with BRIN-BD11 cells [1] (Table 10, 5.6 mM glucose), 5.33 ng/10^6 cells/20 min.
As for `CCCCCCCCCCCCCC(=O)O[C@@H]1[C@@H](C)[C@@]2(O)[C@@H](C=C(CO)C[C@]3(O)C(=O)C(C)=C[C@@H]23)[C@@H]2C(C)(C)[C@]12OC(C)=O` [PMA, reference compound], the “Stimulatory effect on insulin secretion in cells cultured overnight with PMA” value (“Stimulatory effect … with PMA” for short) with BRIN-BD11 cells [2] is listed as “abolition”.
“ALSILRGLEKLAKMGIALTNCKATKKC [Peptide 3.8, 2873.5 Da peptide from Rana palustris, 46% ID to Brevinin-1]”: the “Insulin release (ng/10^6 cells/20 mins)” value in the assay with BRIN-BD11 cells [1] (peptides from Rana palustris, 5.6 mM glucose, no-peptide control 1.467 ± 0.04) is reported as 2.48 ± 0.44 ng/10^6 cells/20 mins.
For the compound “ALWKDILKNVGKAAGKAVLNTVTDMVNQ [Peptide 2.10, peptide from Phyllomedusa trinitatis, 100% ID to Dermaseptin B IV precursor]”, the “Insulin release (ng/10^6 cells/20 mins)” value in the assay on BRIN-BD11 cells [1] (setting [3]) came out at 2.356 ± 0.34 ng/10^6 cells/20 mins.
As for “AVITGACERDVQCGGGTCCAVSLI . . . [Peptide 4.23]”, the “Insulin release (ng/10^6 cells/20 mins)” value in the assay on BRIN-BD11 cells [1] (setting [4]) turned out to be 4.25 ± 0.17 ng/10^6 cells/20 mins.
As to “AVWKDFLKNIGKAAGKAVLNSVTDMVNE [Peptide 2.9, 3020.0 Da peptide from Agalychnis litodryas, 79% ID to Dermaseptin B IV precursor]”, the “Insulin release (ng/10^6 cells/20 mins)” value in the assay with BRIN-BD11 cells [1] (setting [5]) is 7.46 ± 0.08 ng/10^6 cells/20 mins.
As to “FLPIIAGVAAKVFPKIFCAISKKC [Peptide 4.1, peptide from Rana pipiens identical to pipinin-1]”, the “Insulin release (ng/10^6 cells/20 mins)” value with BRIN-BD11 cells [1] (peptides from Rana pipiens, 5.6 mM glucose, mean ± SEM, 3 observations, no-peptide control 2.76 ± 0.13) is 4.15 ± 0.01 ng/10^6 cells/20 mins.
Turning to “FLPLLAGLAANFLPKIFCKITRKC [Peptide 8.3, peptide from Rana saharica matching Brevinin-1E]”, in the assay on BRIN-BD11 cells [1] (setting [4]), the “Insulin release (ng/10^6 cells/20 mins)” value is reported as 3.53 ± 0.06 ng/10^6 cells/20 mins.
On to “GIFSKFGRKKIKNLLISGLKNVGKEVGMDVVRTGIDIAGCKIKGEC [Peptide 5.1, peptide from Rana saharica, 98% ID to Esculentin-1]”, for which, in the assay on BRIN-BD11 cells [1], the “Insulin-releasing action in the presence of verapamil (in words)” value was “not inhibited” and the “Insulin-releasing action in cells depolarised with KCl (in words)” value is “clearly evident”. For the same compound, the “Insulin secretion (ng/10^6 cells/20 min)” value with BRIN-BD11 cells [1] (setting [6]) came to 2.96 ± 0.32 ng/10^6 cells/20 min. The “Insulin secretion (ng/10^6 cells/20 min)” value with BRIN-BD11 cells [1] (setting [7]) is given as 10.11 ± 0.81ΔΔΔ*** ng/10^6 cells/20 min. Also, the “Insulin secretion (ng/10^6 cells/20 min)” value in the assay on BRIN-BD11 cells [1] (setting [8]) is 2.88 ± 0.28 ng/10^6 cells/20 min. For the same compound, in the assay with BRIN-BD11 cells [1] (setting [4]), the “Insulin release (ng/10^6 cells/20 mins)” value was determined as 3.32 ± 0.22 ng/10^6 cells/20 mins. In the assay with BRIN-BD11 cells [2], the “Stimulatory effect … with PMA” value is “abolished”, the “Stimulatory effect on insulin secretion in cells cultured overnight with pertussis toxin” value is “abolished” and the “Stimulatory effect on insulin secretion in cells cultured overnight with forskolin” value is “abolished”.
As to “GIFSKLAGKKLKNLLISGLKNVGKEVGMDVVRTGIDIAGCKIKGEC [Peptide 5.4, peptide from Rana saharica matching Esculentin-1B]”, in the assay on BRIN-BD11 cells [1], the “Insulin-releasing action in the presence of verapamil (in words)” value is on record as “not inhibited” and the “Insulin-releasing action in cells depolarised with KCl (in words)” value was “clearly evident”. The “Insulin secretion (ng/10^6 cells/20 min)” value in the assay on BRIN-BD11 cells [1] (setting [6]) was 2.89 ± 0.19 ng/10^6 cells/20 min. Besides, in the assay on BRIN-BD11 cells [1] (setting [7]), the “Insulin secretion (ng/10^6 cells/20 min)” value is recorded as 11.84 ± 0.98ΔΔΔ*** ng/10^6 cells/20 min. Further, the “Insulin secretion (ng/10^6 cells/20 min)” value with BRIN-BD11 cells [1] (setting [8]) came out at 2.79 ± 0.10 ng/10^6 cells/20 min. Besides, the “Insulin release (ng/10^6 cells/20 mins)” value with BRIN-BD11 cells [1] (setting [4]) is listed as 3.30 ± 0.22 ng/10^6 cells/20 mins. In the assay with BRIN-BD11 cells [2], the “Stimulatory effect … with PMA” value is listed as “abolished”, the “Stimulatory effect on insulin secretion in cells cultured overnight with pertussis toxin” value is recorded as “abolished” and the “Stimulatory effect on insulin secretion in cells cultured overnight with forskolin” value is listed as “abolished”.
As for “GILLDKLKNFAKTAGKGVLQSLLNTASCKLSGQC [Peptide 6.5, peptide from Rana saharica matching Brevinin-2EC]”, the “Insulin release (ng/10^6 cells/20 mins)” value with BRIN-BD11 cells [1] (setting [4]) is given as 5.93 ± 0.47 ng/10^6 cells/20 mins.
The same measure, in the same setting: then “GILSTIKDFAIKAGKGAAKGLLEMASCKLSGQC [Peptide 5.6, 3309.2 Da peptide from Rana saharica, 67% ID to Brevinin-2EB]”, with 2.86 ± 0.37 ng/10^6 cells/20 mins.
Take “IYNAICPCKHCNKCKPGLLAN [Peptide 25, 2300.0 Da peptide from Bombina variegata, no database match]”: the “Insulin release (ng/10^6 cells/20 mins)” value in the assay on BRIN-BD11 cells [1] was 2.39 ± 0.30 ng/10^6 cells/20 mins.
In the case of “KGAAKGLLEVASCKLSKSC [Peptide 4.22, 1892.6 Da peptide from Rana saharica, 68.4% ID to Rugosin A]”, in the assay on BRIN-BD11 cells [1] (setting [4]), the “Insulin release (ng/10^6 cells/20 mins)” value was 3.47 ± 0.40 ng/10^6 cells/20 mins.
For MLADVFEKIMGD . . . [Peptide 1.7], in the assay with BRIN-BD11 cells [1] (setting [5]), the “Insulin release (ng/10^6 cells/20 mins)” value is reported as 4.22 ± 0.48 ng/10^6 cells/20 mins.
For XXPLAPFFQAVFK . . . [Peptide 1.8], the “Insulin release (ng/10^6 cells/20 mins)” value in the assay with BRIN-BD11 cells [1] (setting [3]) was found to be 2.48 ± 0.37 ng/10^6 cells/20 mins.
